In patent publication US20240139210A1, “TREATMENT OF NF-KB-MEDIATED DISEASE” (ReveraGen BioPharma, Inc., priority 2020, published 2024):

What was measured:
Type in all cases: in vivo, human
[1] = system: ambulant boys aged 4 to <7 years with DMD; test: VISION-DMD Phase 2b study VBP15-004, efficacy at 24 weeks
Procedure: The second period of 24 weeks, where all participants receive vamorolone treatment on either of the two dose levels, will continue to capture additional longer-term safety and tolerability data.
The study met its primary endpoint of superiority in the change of time to stand from supine positioning to standing (TTSTAND) velocity with vamorolone 6 mg/kg/day versus placebo (p=0.002) with a treatment difference of 0.06 [95% CI: 0.02-0.10] rises/second from baseline. […] Any number p<0.05 is considered significant.

participants with DMD [2] = test: VBP15-003/VBP15-LTE open-label trials, motor outcomes over 18 months; conditions: for TTCLIMB velocity, LS mean difference (SE), ANCOVA / TTSTAND velocity, LS mean difference (SE), ANCOVA / TTRW velocity, LS mean difference (SE), ANCOVA: vamorolone 18 months vs corticosteroid-naïve DNHS
From the text: Assessments of efficacy were motor outcomes (primary outcome: time to stand from supine [TTSTAND]; secondary outcomes: time to run/walk 10 meters [TTRW], time to climb four stairs [TTCLIMB], distance covered in 6-minute walk test [6MWT], and the North Star Ambulatory Assessment [NSAA]). 6MWT and NSAA were not assessed in most CINRG DNHS participants and were not compared to vamorolone-treated participants. According to standard operating procedures, clinical evaluators were trained to harmonize the CINRG vamorolone, CINRG DNHS, and CINRG prednisone studies. Reliability of these outcomes (percent coefficient of variation) has been reported for the VBP15-002/VBP15-003 studies. Assessments were done at baseline (VBP15-002 entry), 24 weeks (VBP15-003 last visit), and 18 months (VBP15-LTE midpoint assessment at 12 months).
Only participants completing VBP15-002 and VBP15-003 were eligible to enroll in VBP15-LTE. Participants received vamorolone at 1 of 4 dose levels (0.25, 0.75, 2.0, or 6.0 mg/kg/day) and at the same dose level in both the 4-week VBP15-002 trial and the 24-week VBP15-003 trial. If participants, their families, and their physicians wished to continue vamorolone treatment upon exiting the VBP15-003 trial, they were offered participation in the 24-month long-term extension (VBP15-LTE). The last visit of the VBP15-003 trial was commensurate with the first visit of the VBP15-LTE trial. In all studies, study medication was provided as 4% flavored liquid suspension and was dosed according to body weight and given once daily in the morning with food.
Vamorolone-treated participants were initially enrolled into VBP15-002 and VBP15-003 in 4 dose groups (0.25, 0.75, 2.0, and 6.0 mg/kg/day; groups A-D). Upon entering VBP15-LTE, vamorolone group A participants had 2 or 3 sequential dose escalations and were treated with 2.0 or 6.0 mg/kg/day for the last 3-9 months of the 18 months; group B participants had 1 or 2 dose escalations and were treated with 2.0 or 6.0 mg/kg/day for the last 9-11 months. Groups C and D were treated for 18 months at 2.0 or 6.0 mg/kg/day (S1 Fig).
The current study is the first to evaluate the longer-term tolerability, efficacy, and safety of vamorolone in DMD. […] Given the variable timing of dose escalations, it was prespecified that initial analyses of drug-related efficacy and safety would be limited to those participants who had 18 months of treatment with 2.0 mg/kg/day vamorolone or more (dose group C+dose group D; n=23). Outcomes for these participants were compared to a group-matched cohort from the CINRG DNHS over 18 months (corticosteroid-naïve, n=19; corticosteroid-treated, n=68). Participants were matched for age and treatment period (±1 month), matching criteria were prespecified in the statistical analysis plan. Two independent statisticians carried out the matching.
Statistical analyses were done on paired longitudinal outcome data using an analysis of covariance (ANCOVA) approach with change from baseline (VBP15-002) to month 18 (midpoint of VBP15-LTE). Baseline response and age were included as covariates. For the vamorolone-treated participants, age was calculated as (date of informed consent minus birthdate)/365.25. For the DNHS participants, age was calculated as (date of baseline visit used minus birthdate)/365.25. The baseline visit for a DNHS participant was the first visit. […] Timed function tests were analyzed as velocity scores to limit the impact of participants who could not perform the test (velocity=0). Velocity measures are variance-stabilizing transformations, suppressing extreme raw outliers from raw values in seconds; these help with distributional assumptions of the statistical models/tests used. Raw data (seconds) are also reported. Velocity scores for TTSTAND (event/second), TTRW (meters/second), and TTCLIMB (event/second) were inputted as 0 at the first response missing due to inability to perform the test. All other data were observed values only, without imputation. […]

participants with DMD [3] = test: VBP15-LTE Month 24 PODCI and skeletal maturation by wrist x-ray; conditions: for Bone Age difference to Chronologic Age, mean (SD): LTE Month 24, wrist x-ray
From the text: In addition, 39/41 LTE participants had wrist x-ray at Month 24; the mean bone age to chronologic age difference was −1.1 (p<0.001, CI −1.5, −0.7), indicating possible skeletal maturation delay (Table 7).
PODCI is the Pediatrics Outcomes Data Collection Instrument (musculoskeletal disorders). The PODCI is a disease-specific questionnaire developed by the American Academy of Orthopedic Surgeons to measure general health and problems related to bone and muscle conditions in children. A significant increase in mean PODCI upper extremity and physical function standardized score was observed from LTE baseline to Month 24 (7.95±12.54, CI 1.003, 14.897, p=0.0278, n=15) for the combined 2.0 and 6.0 mg/kg/day initial dose group. At the same time, a non-significant decrease in mean PODCI transfer and basic mobility standardized score was observed (−4.38±22.68, CI −16.471, 7.703, p=0.451, n=16) (Table 7).

[4] = vamorolone 18 months vs corticosteroid-naïve participants
[5] = LTE baseline to Month 24, combined 2.0 and 6.0 mg/kg/day initial dose group
[6] = assigned to high dose (2.0 and 6.0 mg/kg/day) at start of the study

C[C@@H]1C[C@H]2[C@@H]3CCC4=CC(=O)C=C[C@]4(C)C3=CC[C@]2(C)[C@@]1(O)C(=O)CO [Vamorolone, 17α,21-dihydroxy-16α-methylpregna-1,4,9(11)-triene-3,20-dione]
TTSTAND after treatment (baseline 6.0 seconds) ([1]; vamorolone 6 mg/kg/day): 4.6 s
TTSTAND velocity, treatment difference versus placebo in change from baseline ([1]; vamorolone 6 mg/kg/day): 0.06 rises/second
difference between vamorolone and prednisone across TTSTAND, 6MWT, TTRW endpoints ([1]; vamorolone 6 mg/kg/day vs prednisone 0.75 mg/kg/day): no statistically significant differences
TTCLIMB velocity, LS mean difference (SE), ANCOVA (participants with DMD [2]): 0.059 (0.026) event/second
TTSTAND velocity, LS mean difference (SE), ANCOVA (participants with DMD [2]): 0.042 (0.024) event/second
TTRW velocity, LS mean difference (SE), ANCOVA (participants with DMD [2]; listed as Valmorolone): 0.286 (0.09) meters/second
TTCLIMB velocity, LS mean difference (SE), ANCOVA (participants with DMD [2]; listed as vamorolone): 0.059 event/second
TTRW velocity, LS mean difference (SE), ANCOVA (participants with DMD [2]; listed as vamorolone): 0.286 meters/second
TTSTAND velocity, LS mean difference (SE), ANCOVA (participants with DMD [2]; listed as vamorolone): 0.042 event/second
TTCLIMB, LS mean difference, ANCOVA (participants with DMD [2]; [4]): -0.34 s
TTRW, LS mean difference, ANCOVA (participants with DMD [2]; [4]): -0.84 s
TTSTAND, LS mean difference, ANCOVA (participants with DMD [2]; [4]): -1.15 s
Bone Age difference to Chronologic Age, mean (SD) (participants with DMD [3]; n = 39): −1.1 (1.2), yr
Bone Age difference to Chronologic Age, mean (SD) (participants with DMD [3]; n = 39, listed as vamorolone): −1.1 yr
PODCI transfer and basic mobility, change from baseline (SD) (participants with DMD [3]; [5]): −4.38±22.68
PODCI upper extremity and physical function, change from baseline (SD) (participants with DMD [3]; [5]): 7.95±12.54
PODCI transfer and basic mobility, 24 months from LTE baseline, mean (SD) (participants with DMD [3]; [6]): 81.4 (17.5), n = 18
PODCI transfer and basic mobility, LTE baseline, mean (SD) (participants with DMD [3]; [6]): 86.5 (9.2), n = 19
PODCI upper extremity and physical function, 24 months from LTE baseline, mean (SD) (participants with DMD [3]; [6]): 82.3 (10.9), n = 18
PODCI upper extremity and physical function, LTE baseline, mean (SD) (participants with DMD [3]; [6]): 75.3 (15.1), n = 18
LTE Month 24 Bone Age by wrist x-ray, mean (SD) (participants with DMD [3]; n = 39, chronologic age 8.0 (1.0) yr): 6.8 (1.4), n = 39 yr
